Assay results as given in patent publication US20160122307A1, “PERHYDROQUINOXALINE DERIVATIVES” (DR. AUGUST WOLFF GMBH & CO. KG ARZNEIMITTEL, priority 2013, published 2016).
Where two headings read alike, the source gives them in different places.

Experiments:
[1] = molecular target: T1, Human opiate κ receptors (Homo sapiens, UniProt P41145); test: κ opioid receptor functional assay, [35S]GTPγS binding (assay C); assay type: biochemical; conditions: for activation at 1 µM: 0.5 h, read-out: % activation functional assay at 1 μM
T1 sequence (P41145 whole entry): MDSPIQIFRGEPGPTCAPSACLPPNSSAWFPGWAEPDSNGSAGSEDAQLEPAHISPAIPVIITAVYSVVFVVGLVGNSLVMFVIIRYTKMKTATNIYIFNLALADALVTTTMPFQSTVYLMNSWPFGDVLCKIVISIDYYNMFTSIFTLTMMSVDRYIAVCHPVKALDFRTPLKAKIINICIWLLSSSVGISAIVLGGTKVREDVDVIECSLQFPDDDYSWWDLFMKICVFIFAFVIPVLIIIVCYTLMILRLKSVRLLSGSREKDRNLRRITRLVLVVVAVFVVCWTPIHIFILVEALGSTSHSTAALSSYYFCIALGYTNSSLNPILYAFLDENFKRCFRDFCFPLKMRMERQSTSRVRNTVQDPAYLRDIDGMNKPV

[2] = molecular target: T1, Human opiate κ receptors; assay type: binding; set-up: expressed in transfected cells; host or cells: HEK-293 cell membranes
[3] = system: arachidonic acid-induced ear inflammation; assay type: in vivo, mice
[4] = read-out: EC50 (nM) [35S]GTPγS binding

Compound	% activation functional assay at 1 μM [1] [%]	EC50 ([1]; read-out: GTPγS EC50) [nM]	% binding at 100 nM [2] [%]	activation at 1 µM [1] [%]	also measured
COC(=O)N1CCN(C(=O)Cc2ccc(Cl)c(Cl)c2)[C@@H]2[C@@H](N(C)C)CCC[C@@H]21.Cl (racemic) [Example 17]	92	< 10	92		% binding at 1 μM [2]: 97%
Cl.O=C(Cc1ccc(Cl)c(Cl)c1)N1CCN(S(=O)(=O)N2CCCC2)C2CCCC(N3CCC(O)C3)C21 (stereo not shown) [Example 127]	100	10 to 100	66		
CCCNS(=O)(=O)N1CCN(C(=O)Cc2ccc(Cl)c(Cl)c2)C2C(N3CCC(O)C3)CCCC21.Cl (stereo not shown) [Example 133]	105	< 10	74		
O=C(Cc1ccc(F)c(Cl)c1)N1CCN(S(=O)(=O)Cc2ccon2)[C@H]2CCC[C@H](N3CC[C@H](O)C3)[C@H]21 [Example 148]	93	< 10	92		
COC(=O)N1CCN(C(=O)Cc2ccc(Cl)c(Cl)c2)C2C(N3CCC(C(N)=O)C3)CCCC21.Cl (mixture of isomers) [Example 84]	99	10 to 100	89		
O=C(Cc1ccc(Cl)c(Cl)c1)N1CCN(S(=O)(=O)N2CCOCC2)[C@H]2CCC[C@H](N3CC[C@H](O)C3)[C@H]21 [Example 137]	101	< 10	71		
COC(=O)N1CCN(C(=O)Cc2ccc(Cl)c(F)c2)[C@@H]2[C@@H](N3CC[C@H](O)C3)CCC[C@@H]21 [Example 112]				93	EC50 ([1]; GTPγS EC50 (nM)): < 10 nM; increase in ear thickness ([3]; mouse, in vivo): dose dependently prevented the increase
CS(=O)(=O)N1CCN(C(=O)Cc2ccc(Cl)c(F)c2)C2C(N3CCC(O)C3)CCCC21.Cl (stereo not shown) [Example 122]	105	< 10			increase in ear thickness ([3]; topical, versus vehicle control): dose dependently prevented the increase
O=C(Cc1ccc(Cl)c(Cl)c1)N1CCN(S(=O)(=O)Cc2ccon2)[C@H]2CCC[C@H](N3CC[C@H](O)C3)[C@H]21 [Example 136]	108	< 10	96		
COC(=O)N1CCN(C(=O)Cc2cc(F)cc(F)c2)[C@@H]2[C@@H](N3CCCC3)CCC[C@@H]21.Cl (racemic) [Example 2]			41		
O=C(Cc1ccc(Cl)cc1)N1CCN(S(=O)(=O)Cc2ccon2)[C@H]2CCC[C@H](N3CC[C@H](O)C3)[C@H]21 [Example 146]	103	< 10	76		
CCNS(=O)(=O)N1CCN(C(=O)Cc2ccc(Cl)c(Cl)c2)C2C(N3CCC(O)C3)CCCC21.Cl (stereo not shown) [Example 132]	106	< 10	71		
CNS(=O)(=O)N1CCN(C(=O)Cc2ccc(Cl)c(Cl)c2)C2C(N3CCC(O)C3)CCCC21.Cl (stereo not shown) [Example 131]	104	< 10	78		
O=C(Cc1ccc(F)c(F)c1)N1CCN(S(=O)(=O)Cc2ccon2)[C@H]2CCC[C@H](N3CC[C@H](O)C3)[C@H]21 [Example 149]	97	< 10	81		
CCOC(=O)COC(=O)N1CCN(C(=O)Cc2ccc(Cl)c(Cl)c2)C2C(N3CCCC3)CCCC21.Cl (stereo not shown) [Example 111]	105	< 10	105		
O=C(Cc1ccc(Cl)c(Cl)c1)N1CCN(S(=O)(=O)NC2CCCC2)[C@H]2CCC[C@H](N3CC[C@H](O)C3)[C@H]21 [Example 135]	105	< 10	76		
COC(=O)N1CCN(C(=O)Cc2ccc(F)c(Cl)c2)[C@@H]2[C@@H](N3CC[C@H](F)C3)CCC[C@@H]21 [Example 150]	92	< 10	97		
COC(=O)N1CCN(C(=O)Cc2c[nH]c3ccccc23)[C@@H]2[C@@H](N3CCCC3)CCC[C@@H]21.Cl (racemic) [Example 9]			43		
CC(C)OC(=O)C(=O)N1CCN(C(=O)Cc2ccc(Cl)c(Cl)c2)[C@@H]2[C@@H](N3CCCC3)CCC[C@@H]21.Cl [Example 123]	99	< 10	68		
Cl.O=C(Cc1ccc(Cl)c(Cl)c1)N1CCN(C(=O)NCc2ccccc2)[C@H]2CCC[C@H](N3CCCC3)[C@H]21 (racemic) [Example 41]	81	< 10	92		
Cl.NCC(=O)N1CCN(C(=O)Cc2ccc(Cl)c(Cl)c2)[C@@H]2[C@@H](N3CCCC3)CCC[C@@H]21 (racemic) [Example 44]			41		
CC(C)NS(=O)(=O)N1CCN(C(=O)Cc2ccc(Cl)c(Cl)c2)[C@@H]2[C@@H](N3CC[C@H](O)C3)CCC[C@@H]21 [Example 134]	102	< 10	67		
Cl.O=C(Cc1ccc(Cl)c(Cl)c1)N1CCN(S(=O)(=O)NCCO)C2CCCC(N3CCC(O)C3)C21 (stereo not shown) [Example 130]	102	10 to 100	70		

Compound	% activation functional assay at 1 μM [1] [%]	EC50 ([1]; read-out: GTPγS EC50) [nM]	% binding at 100 nM [2] [%]	activation at 1 µM [1] [%]	also measured
O=C(Cc1ccc(Cl)c(F)c1)N1CCN(S(=O)(=O)Cc2ccon2)[C@H]2CCC[C@H](N3CC[C@H](O)C3)[C@H]21 [Example 147]	105	< 10	88		
COC(=O)N1CCN(C(=O)Cc2ccc([N+](=O)[O-])cc2)[C@@H]2[C@@H](N3CCCC3)CCC[C@@H]21.Cl (racemic) [Example 4]			43		
COC(=O)N1CCN(C(=O)Cc2ccc(Cl)c(Cl)c2)[C@H]2[C@H](N3CCCC3)CCC[C@@H]21 (single isomer, unassigned) [Reference compound C, reference compound]				85	
O=C(N1CCCC1)N1CCN(C(=O)Cc2ccc(Cl)c(Cl)c2)C2C(N3CCCC3)CCCC21 (racemic) [Example 38]				109	EC50 ([1]; GTPγS EC50 (nM)): 10 to 100 nM
Cl.O=C(Cc1ccc(Cl)c(Cl)c1)N1CCN(S(=O)(=O)c2cn[nH]c2)C2CCCC(N3CCC(O)C3)C21 (stereo not shown) [Example 128]	95	< 10	92		
COC(=O)N1CCN(C(=O)Cc2ccc(F)c(OC)c2)C2C(N3CCCC3)CCCC21 (racemic) [Example 21]				103	EC50 ([1]; GTPγS EC50 (nM)): 10 to 100 nM
O=C(Cc1ccc(Cl)c(Cl)c1)N1CCN(C(=O)NCc2ccccc2)[C@H]2CCC[C@H](N3CCCC3)[C@H]21 [Example 100]				105	EC50 ([1]; GTPγS EC50 (nM)): < 10 nM
COC(=O)N1CCN(C(=O)Cc2ccc3c(c2)CCCC3)C2C(N3CCCC3)CCCC21 (racemic) [Example 6]				97	EC50 ([1]; GTPγS EC50 (nM)): 10 to 100 nM
COC(=O)N1CCN(C(=O)Cc2ccc(C(F)(F)F)cc2)C2C1CCCC2N(C)C(C)C (racemic) [Example 14]				104	EC50 ([1]; GTPγS EC50 (nM)): < 10 nM
NC(=O)C(=O)N1CCN(C(=O)Cc2ccc(Cl)c(Cl)c2)C2C(N3CCCC3)CCCC21 (racemic) [Example 66]				100	EC50 ([1]; GTPγS EC50 (nM)): 10 to 100 nM
O=C(Cc1ccc(Cl)c(Cl)c1)N1CCN(Cc2cnc[nH]2)C2CCCC(N3CCCC3)C21 (stereo not shown) [AA, reference compound]					activation (% of control) at 1 μM [1]: 89 % of control; EC50 [1, 4]: 56 nM
O=C(c1ccccc1)N1CCN(C(=O)Cc2ccc(Cl)c(Cl)c2)C2C(N3CCC(O)C3)CCCC21 (stereo not shown) [R, reference compound]					activation (% of control) at 1 μM [1]: 63 % of control
COC(=O)N1CCN(C(=O)Cc2ccc(C(F)(F)F)cc2)C2C(N3CCCC3)CCCC21 (racemic) [Example 5]				105	EC50 ([1]; GTPγS EC50 (nM)): < 10 nM
O=C(c1ncccn1)N1CCN(C(=O)Cc2ccc(Cl)c(Cl)c2)C2C(N3CCCC3)CCCC21 (racemic) [Example 82]				97	
CCCCN1CCN(C(=O)Cc2ccc(Cl)c(Cl)c2)C2C(N3CCCC3)CCCC21 (stereo not shown) [W, reference compound]					activation (% of control) at 1 μM [1]: 113 % of control; EC50 [1, 4]: 12 nM
CC(C)NC(=O)N1CCN(C(=O)Cc2ccc(Cl)c(Cl)c2)C2C(N3CCCC3)CCCC21 (racemic) [Example 42]				96	EC50 ([1]; GTPγS EC50 (nM)): < 10 nM
O=C(c1ncccn1)N1CCN(C(=O)Cc2ccc(Cl)c(Cl)c2)C2C(N3CCCC3)CCCC21 (racemic) [Example 83]	111				
COC(=O)N1CCN(C(=O)Cc2ccc(Cl)cc2)[C@@H]2[C@@H](N3CC[C@H](O)C3)CCC[C@@H]21 [Example 140]				103	EC50 ([1]; GTPγS EC50 (nM)): 10 to 100 nM
CN(C)S(=O)(=O)N1CCN(C(=O)Cc2ccc(Cl)c(Cl)c2)C2C(N3CCC(O)C3)CCCC21.Cl (stereo not shown) [Example 129]	104	< 10	80		
CS(=O)(=O)N1CCN(C(=O)Cc2ccc(Cl)c(Cl)c2)C2C(N3CCC(O)C3)CCCC21.Cl (stereo not shown) [Example 121]	106	< 10			
O=C(O)CCC(=O)N1CCN(C(=O)Cc2ccc(Cl)c(Cl)c2)[C@H]2[C@H]1CCC[C@@H]2N1CCCC1 (racemic) [AE, reference compound]					activation (% of control) at 1 μM [1]: 43 % of control; activation of the kappa opioid receptors at 1 μM [1]: no or little activation; EC50 ([1]; EC50 (nM) [35S]GTPγS binding): > 1000 nM
CC(=O)OCC(=O)N1CCN(C(=O)Cc2ccc(Cl)c(Cl)c2)C2C(N3CCCC3)CCCC21 (racemic) [Example 58]				96	EC50 ([1]; GTPγS EC50 (nM)): 10 to 100 nM
COC(=O)N1CCN(C(=O)Cc2ccc(Cl)c(Cl)c2)[C@@H]2[C@@H](N3CC[C@H](O)C3)CCC[C@@H]21 [Example 97]				113	EC50 ([1]; GTPγS EC50 (nM)): < 10 nM
